Patent publication US20040053822A1, “Inducing cellular immune responses to mage2/3 using peptide and nucleic acid compositions” (priority 2002, published 2004)
pIC50: −log10 of the molar value.

What was measured:
HLA-A*3301 = HLA-A*3301 (Homo sapiens, UniProt P04439, A270S/D185E/E176V/E277Q/E87N/F33T/G231S/H175R/I121M/I218V/I322F/K168Q/K210R/L300P/L318F/M331R/P217A/Q86R/Q94H/R138Q/T323A/T345S/T97I/V358M/Y195H); assay: Purified HLA class I peptide binding assay, A*3301; details: binding affinity, HLA-A3 supermotif-bearing peptides
HLA-A*1101 = HLA-A*1101 (Homo sapiens, UniProt P04439, A114D/D185E/E176A/F33Y/L180Q/S129P/T187R); assay: Purified HLA class I peptide binding assay, A*1101; details: binding affinity, HLA-A3 supermotif-bearing peptides
HLA-A*3101 = HLA-A*3101 (Homo sapiens, UniProt P04439, A270S/D185E/E176V/E277Q/F33T/G231S/G80R/H175R/I121M/I218V/I322F/K168Q/L300P/L318F/M331R/P217A/Q94H/R138Q/T323A/T345S/T97I/V358M); assay: Purified HLA class I peptide binding assay, A*3101; details: binding affinity, HLA-A3 supermotif-bearing peptides
HLA-A*0301 = HLA-A*0301 (Homo sapiens, UniProt P04439); assay: Purified HLA class I peptide binding assay, A*0301; details: binding affinity, HLA-A3 supermotif-bearing peptides
HLA-A*6801 = HLA-A*6801 (Homo sapiens, UniProt P04439, A269V/D185E/E176V/E277Q/E87N/F33Y/G231S/I121M/I166T/I218V/L180W/L300P/L318F/N151K/P208A/P217A/Q86R/R169H/T345S); assay: Purified HLA class I peptide binding assay, A*6801; details: binding affinity, HLA-A3 supermotif-bearing peptides
HLA-A*0206 = HLA-A*0206 (Homo sapiens, UniProt P04439, D140Y/D185E/D98H/E176V/E277Q/F33Y/G131W/G231S/I119V/I121R/I166T/I218V/L300P/L318F/N151K/N90K/P208A/P217A/Q86G/Q94H/R138H/R169H/T345S); assay: Purified HLA class I peptide binding assay, A*0206; details: binding affinity, A2 supermotif peptides and analogs
HLA-A*0203 = HLA-A*0203 (Homo sapiens, UniProt P04439, A173T/D140Y/D185E/D98H/E277Q/G131W/G231S/I119V/I121R/I166T/I218V/L180W/L300P/L318F/N151K/N90K/P208A/P217A/Q86G/Q94H/R138H/R169H/T345S); assay: Purified HLA class I peptide binding assay, A*0203; details: binding affinity, A2 supermotif peptides and analogs
HLA-A*0202 = HLA-A*0202 (Homo sapiens, UniProt P04439, D140Y/D185E/D98H/E176V/E277Q/G131W/G231S/I119L/I121R/I166T/I218V/L180W/L300P/L318F/N151K/N90K/P208A/P217A/Q67R/Q86G/Q94H/R138H/R169H/T345S); assay: Purified HLA class I peptide binding assay, A*0202; details: binding affinity, A2 supermotif peptides and analogs
HLA-A*6802 = HLA-A*6802 (Homo sapiens, UniProt P04439, A269V/D140Y/D185E/E176V/E277Q/E87N/F33Y/G231S/I121R/I166T/I218V/L180W/L300P/L318F/N151K/P208A/P217A/Q86R/R138H/R169H/S129P/T345S/V36M); assay: Purified HLA class I peptide binding assay, A*6802; details: binding affinity, A2 supermotif peptides and analogs
HLA-DRB1*0401 (DR4w4) = HLA-DRB1*0401 (DR4w4) (Homo sapiens, UniProt P01903+P01911, A100K/A169T/F76Y/I96L/K127E/L162R/M171V/N62H/P40V/Q125Y/R42H/S133A/S149N/S66Y/V115G/V209L/W38E); assay: Purified HLA class II peptide binding assay, DRB1*0401
[1] = system: peptide-specific CTL from PBMC; assay: CTL immunogenicity of A3, B7 supermotif and A1, A24 motif peptides (methodology analogous to A2); type: cell-based, human; details: positive/tested
Experimental: HLA-A3 supermotif-bearing cross-reactive binding peptides are also evaluated for immunogenicity using methodology analogous for that used to evaluate the immunogenicity of the HLA-A2 supermotif peptides.
Analogous methodology, as appreciated by one of ordinary skill in the art, is employed to determine immunogenicity of peptides bearing HLA class I motifs and/or supermotifs set out herein.

## CC[C@H](C)[C@H](NC(=O)[C@H](CC(C)C)NC(=O)[C@H](C)N)C(=O)N[C@@H](CCC(=O)O)C(=O)N[C@H](C(=O)N[C@@H](CO)C(=O)N[C@@H](Cc1ccc(O)cc1)C(=O)N[C@H](C(=O)N[C@@H](CCCCN)C(=O)O)C(C)C)[C@@H](C)O
HLA-A*3301
  pIC50: < 5.00
HLA-A*1101
  pIC50: 7.49
HLA-A*3101
  pIC50: 6.05
HLA-A*0301
  pIC50: 6.87
HLA-A*6801
  pIC50: 6.54

## CC[C@H](C)[C@H](NC(=O)[C@H](CC(C)C)NC(=O)[C@H](C)N)C(=O)N[C@@H](CCC(=O)O)C(=O)N[C@H](C(=O)N[C@@H](CO)C(=O)N[C@@H](Cc1ccc(O)cc1)C(=O)N[C@H](C(=O)N[C@@H](CCCCN)C(=O)N[C@H](C(=O)O)C(C)C)C(C)C)[C@@H](C)O
HLA-A*0206
  pIC50: 5.71
HLA-A*0203
  pIC50: 6.90
HLA-A*0202
  pIC50: 6.14
HLA-A*6802
  pIC50: 5.51

## CC(C)C[C@H](NC(=O)[C@H](CCC(=O)O)NC(=O)[C@H](C)NC(=O)[C@H](CC(C)C)NC(=O)[C@@H](N)CCCCN)C(=O)N[C@H](C(=O)N[C@@H](Cc1c[nH]cn1)C(=O)N[C@@H](Cc1ccccc1)C(=O)N[C@H](C(=O)O)C(C)C)C(C)C
HLA-A*0206
  pIC50: 7.82
HLA-A*0203
  pIC50: 7.66
HLA-A*0202
  pIC50: 7.89
HLA-A*6802
  pIC50: 7.14

## CC[C@H](C)[C@H](NC(=O)[C@H](C)NC(=O)[C@@H](NC(=O)[C@@H](NC(=O)[C@H](C)NC(=O)[C@H](CC(C)C)NC(=O)[C@@H](NC(=O)[C@@H](NC(=O)[C@@H](NC(=O)[C@H](CC(C)C)NC(=O)[C@@H](N)CC(C)C)[C@@H](C)CC)[C@@H](C)CC)C(C)C)[C@@H](C)CC)[C@@H](C)CC)C(=O)N[C@@H](CCC(=O)O)C(=O)NCC(=O)N[C@@H](CC(=O)O)C(=O)N[C@@H](CS)C(=O)O
HLA-DRB1*0401 (DR4w4)
  pIC50: 5.43

## CC[C@H](C)[C@H](NC(=O)[C@@H](NC(=O)[C@@H](N)[C@@H](C)O)[C@@H](C)O)C(=O)N[C@@H](CC(N)=O)C(=O)N[C@@H](Cc1ccc(O)cc1)C(=O)N[C@H](C(=O)N[C@@H](CC(C)C)C(=O)N[C@@H](Cc1c[nH]c2ccccc12)C(=O)N[C@@H](CCCNC(=N)N)C(=O)O)[C@@H](C)O
[1]; CTL recognition of tumor targets
  CTL Tumor: 2/5
[1]; CTL recognition of wild-type peptide
  CTL Wild-type: 7/7
